Several values for one entry are separate records, joined by “and”; a condition that tells them apart may be missing. Equal entries are not always repeated. Inconclusive results and toxic doses are left out. Peptide text beside a SMILES is read from it. * marks the point of attachment. Boc = CC(C)(C)OC(=O)*
System: P388 leukemia ip, CD2F1 mice, survival T/C
Experiment: NCI In Vivo Anticancer Drug Screen. Data for tumor model P388 Leukemia (intraperitoneal) in CD2F1 (CDF1) mice
Settings: endpoint: median survival time, higher = longer survival
Method in brief: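 Mice carrying the transplanted tumor received test compound or vehicle. Survival was recorded in each group, and the value is the treated-group measurement divided by that of the vehicle-treated control group.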

[1] = dose: 60.0 mg/kg/injection, schedule: Q01DX005 (ip), vehicle: saline with Tween-80
[2] = dose: 120.0 mg/kg/injection, schedule: Q01DX005 (ip), vehicle: saline with Tween-80
[3] = dose: 240.0 mg/kg/injection, schedule: Q01DX005 (ip), vehicle: saline with Tween-80
[4] = dose: 100.0 mg/kg/injection, schedule: Q01DX009 (ip), vehicle: saline with Tween-80
[5] = dose: 200.0 mg/kg/injection, schedule: Q01DX009 (ip), vehicle: saline with Tween-80
[6] = dose: 400.0 mg/kg/injection, schedule: Q01DX009 (ip), vehicle: saline with Tween-80
[7] = dose: 50.0 mg/kg/injection, schedule: Q01DX009 (ip), vehicle: saline with Tween-80
[8] = dose: 50.0 mg/kg/injection, schedule: Q01DX005 (ip), vehicle: Klucel (hydroxypropylcellulose) (HPC)
[9] = dose: 100.0 mg/kg/injection, schedule: Q01DX005 (ip), vehicle: Klucel (hydroxypropylcellulose) (HPC)
[10] = dose: 200.0 mg/kg/injection, schedule: Q01DX005 (ip), vehicle: Klucel (hydroxypropylcellulose) (HPC)
[11] = dose: 50.0 mg/kg/injection, schedule: Q01DX009 (ip), vehicle: saline
[12] = dose: 100.0 mg/kg/injection, schedule: Q01DX009 (ip), vehicle: saline
[13] = dose: 200.0 mg/kg/injection, schedule: Q01DX009 (ip), vehicle: saline
[14] = dose: 50.0 mg/kg/injection, schedule: Q01DX009 (ip), vehicle: Klucel (hydroxypropylcellulose) (HPC)
[15] = dose: 100.0 mg/kg/injection, schedule: Q01DX009 (ip), vehicle: Klucel (hydroxypropylcellulose) (HPC)
[16] = dose: 200.0 mg/kg/injection, schedule: Q01DX009 (ip), vehicle: Klucel (hydroxypropylcellulose) (HPC)
[17] = dose: 50.0 mg/kg/injection, schedule: Q01DX005 (ip), vehicle: saline
[18] = dose: 100.0 mg/kg/injection, schedule: Q01DX005 (ip), vehicle: saline
[19] = dose: 12.5 mg/kg/injection, schedule: Q01DX009 (ip), vehicle: saline with Tween-80
[20] = dose: 25.0 mg/kg/injection, schedule: Q01DX009 (ip), vehicle: saline with Tween-80

CCOC(=O)c1c[nH]n2ccnc12
T/C (dose: 100.0 mg/kg/injection, schedule: Q04DX002 (ip), vehicle: saline with Tween-80): 100 % of control
T/C (dose: 200.0 mg/kg/injection, schedule: Q04DX002 (ip), vehicle: saline with Tween-80): 103 % of control

Cc1cc2nc(CC(=O)c3ccncc3)c(CC(=O)c3ccncc3)nc2cc1C
T/C [1]: 106 % of control
T/C [2]: 91 % of control
T/C [3]: 91 % of control

CC(C)(C)c1cc(C(=O)O)c(SSc2ccccc2)c(C(=O)O)c1
T/C (dose: 100.0 mg/kg/injection, schedule: Q04DX002 (ip), vehicle: Klucel (hydroxypropylcellulose) (HPC)): 105 % of control

O=c1[nH]cc(I)cc1I
T/C [4]: 95 % of control
T/C [5]: 95 % of control
T/C [6]: 90 % of control

Clc1nc(Cl)nc(N2CCCc3ccccc32)n1
T/C [7]: 89 % of control
T/C [4]: 96 % of control
T/C [5]: 93 % of control

CCOC(=O)C(CCC(=O)O)NC(=O)C(CCSC)NC(=O)OC(C)(C)C (stereo not drawn) (Boc-Met-Glu-OEt; configuration not given here)
T/C [8]: 102 % of control
T/C [9]: 102 % of control
T/C [10]: 97 % of control

CC1=C[C@H]2[C@@]3(O)[C@H](C)[C@@H](OC(=O)c4ccccc4)[C@]4(OC(=O)c5ccccc5)[C@H]([C@@H]3C=C(COC(=O)c3ccccc3)C[C@]2(O)C1=O)C4(C)C
T/C (dose: 20.0 micrograms/kg/injection, schedule: Q01DX009 (ip), vehicle: saline + alcohol): 100 % of control
T/C (dose: 40.0 micrograms/kg/injection, schedule: Q01DX009 (ip), vehicle: saline + alcohol): 96 % of control
T/C (dose: 80.0 micrograms/kg/injection, schedule: Q01DX009 (ip), vehicle: saline + alcohol): 102 % of control
T/C (dose: 160.0 micrograms/kg/injection, schedule: Q01DX009 (ip), vehicle: saline + alcohol): 100 % of control
T/C (dose: 320.0 micrograms/kg/injection, schedule: Q01DX009 (ip), vehicle: saline + alcohol): 94 % of control

O=C(Oc1ccccc1)N1CCOCC1
T/C (dose: 50.0 mg/kg/injection, schedule: Q01DX009 (ip), vehicle: other): 96 % of control
T/C (dose: 100.0 mg/kg/injection, schedule: Q01DX009 (ip), vehicle: other): 102 % of control
T/C (dose: 200.0 mg/kg/injection, schedule: Q01DX009 (ip), vehicle: other): 112 % of control

CP1(=O)CC2=C(CC2)C1
T/C [11]: 108 % of control
T/C [12]: 103 % of control
T/C [13]: 95 % of control

Clc1ccc(C2=NNC(c3ccc(Cl)cc3)=NN2)cc1
T/C (dose: 60.0 mg/kg/injection, schedule: Q01DX005 (ip), vehicle: Klucel (hydroxypropylcellulose) (HPC)): 103 % of control
T/C (dose: 120.0 mg/kg/injection, schedule: Q01DX005 (ip), vehicle: Klucel (hydroxypropylcellulose) (HPC)): 102 % of control
T/C (dose: 240.0 mg/kg/injection, schedule: Q01DX005 (ip), vehicle: Klucel (hydroxypropylcellulose) (HPC)): 98 % of control

CC(=O)N(CC(=O)Nc1ccc(S(N)(=O)=O)cc1)C(C)C
T/C [14]: 100 % of control
T/C [15]: 99 % of control
T/C [16]: 92 % of control

CCOC(=O)C1=C(C)O/C(=C/c2ccc(OC)cc2)C1=O
T/C [14]: 98 % of control
T/C [15]: 93 % of control
T/C [16]: 100 % of control

Cc1cc2nc3c(nc2cc1C)CCCCCC3
T/C (dose: 85.5 mg/kg/injection, schedule: Q01DX001 (ip), vehicle: Klucel (hydroxypropylcellulose) (HPC)): 92 % of control
T/C (dose: 171.0 mg/kg/injection, schedule: Q01DX001 (ip), vehicle: Klucel (hydroxypropylcellulose) (HPC)): 90 % of control
T/C (dose: 342.0 mg/kg/injection, schedule: Q01DX001 (ip), vehicle: Klucel (hydroxypropylcellulose) (HPC)): 90 % of control

Cc1cc(=O)[nH]c(N/N=C/c2ccc(O)cc2)n1
T/C (dose: 18.75 mg/kg/injection, schedule: Q04DX003 (ip), vehicle: saline sonified): 90 % of control
T/C (dose: 37.5 mg/kg/injection, schedule: Q04DX003 (ip), vehicle: saline sonified): 86 % of control
T/C (dose: 75.0 mg/kg/injection, schedule: Q04DX003 (ip), vehicle: saline sonified): 104 % of control

CC(C)c1ccc(/C=C(/NC(=O)c2ccccc2)c2nc3ccccc3s2)cc1
T/C [1]: 104 % of control
T/C [2]: 111 % of control
T/C [3]: 118 % of control

CS(=O)(=O)/C=C/C([N+](=O)[O-])[N+](=O)[O-]
T/C (dose: 100.0 mg/kg/injection, schedule: Q04DX003 (ip), vehicle: saline): 109 % of control
T/C (dose: 200.0 mg/kg/injection, schedule: Q04DX003 (ip), vehicle: saline): 104 % of control
T/C (dose: 400.0 mg/kg/injection, schedule: Q04DX003 (ip), vehicle: saline): 92 % of control

COc1ccc(C(=Nc2ccc(C)cc2)c2ccc([N+](=O)[O-])cc2)cc1
T/C [4]: 90 % of control
T/C (dose: 100.0 mg/kg/injection, schedule: Q04DX003 (ip), vehicle: saline with Tween-80): 95 % of control
T/C [5]: 90 % of control
T/C (dose: 200.0 mg/kg/injection, schedule: Q04DX003 (ip), vehicle: saline with Tween-80): 95 % of control
T/C [6]: 90 % of control
T/C (dose: 400.0 mg/kg/injection, schedule: Q04DX003 (ip), vehicle: saline with Tween-80): 100 % of control

Cc1ccc(S(=O)(=O)N/N=C/C(Br)=C(/Br)C(=O)O)cc1
T/C (dose: 25.0 mg/kg/injection, schedule: Q01DX009 (ip), vehicle: distilled water + Tween-80): 154 % of control and 171 % of control
T/C (dose: 50.0 mg/kg/injection, schedule: Q01DX009 (ip), vehicle: distilled water + Tween-80): 157 % of control and 166 % of control

C=CC(C)(C)C12Oc3c(ccc(OC)c3OC)C1=COc1cc(O)ccc12 (centres undefined)
T/C (dose: 100.0 mg/kg/injection, schedule: Q01DX001 (ip), vehicle: Klucel (hydroxypropylcellulose) (HPC)): 101 % of control
T/C (dose: 200.0 mg/kg/injection, schedule: Q01DX001 (ip), vehicle: Klucel (hydroxypropylcellulose) (HPC)): 105 % of control
T/C (dose: 400.0 mg/kg/injection, schedule: Q01DX001 (ip), vehicle: Klucel (hydroxypropylcellulose) (HPC)): 97 % of control

C=C=C(COC(C)=O)ON1CCCCC1
T/C [17]: 111 % of control
T/C [18]: 111 % of control

c1cc(C2CCOCC2)ccn1
T/C [19]: 100 % of control
T/C (dose: 12.5 mg/kg/injection, schedule: Q04DX003 (ip), vehicle: saline with Tween-80): 100 % of control
T/C [20]: 90 % of control
T/C (dose: 25.0 mg/kg/injection, schedule: Q04DX003 (ip), vehicle: saline with Tween-80): 100 % of control
T/C [7]: 100 % of control
T/C (dose: 50.0 mg/kg/injection, schedule: Q04DX003 (ip), vehicle: saline with Tween-80): 95 % of control

CCOC1=Cc2c(oc3c(C(C)(C)C)cc(OCC)cc23)OC(C(C)(C)C)=C1
T/C (dose: 3.12 mg/kg/injection, schedule: Q01DX009 (ip), vehicle: saline with Tween-80): 103 % of control
T/C (dose: 6.25 mg/kg/injection, schedule: Q01DX009 (ip), vehicle: saline with Tween-80): 92 % of control
T/C [19]: 100 % of control
T/C [20]: 100 % of control

CC1(C)N(O)C(c2cccnc2)=[N+]([O-])C1(C)C
T/C [8]: 104 % of control
T/C [11]: 97 % of control
T/C [9]: 101 % of control
T/C [12]: 94 % of control
T/C [10]: 103 % of control
T/C [13]: 102 % of control

O=C(O)c1c2c(nc3ccccc13)-c1ccccc1C2
T/C [8]: 102 % of control
T/C [9]: 93 % of control
T/C [10]: 89 % of control

CC[C@@H]1CN2CCc3c([nH]c4ccccc34)[C@@H]2C[C@@H]1/C(=C\OC)C(=O)OC
T/C (dose: 25.0 mg/kg/injection, schedule: Q01DX005 (ip), vehicle: saline): 100 % of control and 96 % of control
T/C [17]: 98 % of control and 107 % of control and 108 % of control
T/C [18]: 109 % of control (2×) and 123 % of control

C1CC[N-]CC1.CC(=N\O)/C(C)=N/O.CC(=N\O)/C(C)=N/O.N#C[CH-]CC#N.[Co+2]
T/C [19]: 91 % of control
T/C [20]: 96 % of control
T/C [7]: 97 % of control
T/C [4]: 92 % of control

N#CCCCCCCCCCCCCCC1C=CCC1 (centres undefined)
T/C (dose: 100.0 mg/kg/injection, schedule: Q01DX001 (ip), vehicle: saline): 106 % of control
T/C (dose: 200.0 mg/kg/injection, schedule: Q01DX001 (ip), vehicle: saline): 99 % of control
T/C (dose: 400.0 mg/kg/injection, schedule: Q01DX001 (ip), vehicle: saline): 101 % of control
